According to patent publication US8057810B2, “Peptide substance revealing an immunogeroprotective effect, pharmaceutical composition on its base and the method of its application” (priority 2006, dated 2011):
Marks after values point to notes of the source that are not given here. Residues, ends and D or L forms follow the SMILES beside them.

Columns and labels:
[1] = test system: elderly and old patients with age-related immune status decline; experiment: Clinical application in elderly and old patients exposed to small doses of ionizing irradiation; format: in vivo, human
Description: The efficacy of pharmaceutical composition, containing an effective amount of peptide H-Glu-Asp-Pro-OH as an active base, was studied in elderly and old patients, exposed to long-term ionizing irradiation in small doses.
The main group consisted of 38 elderly patients (18 men, 20 women), who were divided into 3 groups according to the intensity of immune status changes. […] Elderly and old patients with age-related decrease of the immune functions were injected with the pharmaceutical composition containing peptide H-Glu-Asp-Pro-OH in the dose of 10.0 μg in 1 ml of sterile 0.9% NaCl solution intramuscularly, daily, once a day for 10 days. 32 control group patients (14 men, 18 women) received only conventional treatment. The patients of both groups were from 62 to 83 years old. The efficacy of the pharmaceutical composition containing peptide H-Glu-Asp-Pro-OH was estimated judging by the dynamics of the patients' complaints and a set of objective indices, such as common blood and urine tests, immunologic study of peripheral blood (the number of T- and B-lymphocytes was estimated using the immunofluorescence method with monoclonal antibodies to CD3, CD4, CD8, CD20 differentiation lymphocytes antigens; content of immunoglobulins of different classes—using Mancini's method of radial immunodiffusion in the gel, T-lymphocytes functional activity—in lymphocyte migration inhibition reaction (LMIR) with Con A.

[2] = test system: lymphocytes taken from very old patients; experiment: Chromatin in blood lymphocytes of old patients in vitro; format: cell-based, human; details: 0.01 μg/ml; lymphocytes of patients aged 75-88
Description: Peptide H-Glu-Asp-Pro-OH effect on the system of chromatin domains was studied in old people lymphocytes cultures, in particular on chromatin reactivation such as in deheterochromatinization of heterocliromatin satellite filaments (activity of synthetic processes in ribosomal genes, total heterochromatin, structural heterochromatin (changeability of C-blocks of the 1, 9 and 16 chromosomes) and optional heterochromatin.
The studies were conducted on the chromosomes of 150 PHA-stimulated and 40 PHA-non-stimulated lymphocyte cultures, obtained from 95 healthy patients aged 75-88 (control—25 donors aged 20-40). There were studied 2 cell cultures from each patient —one intact and one with peptide H-Glu-Asp-Pro-OH added into the cultural medium up to the ultimate concentration of 0.01 μg/ml. To study each parameter there were analyzed from 30 up to 50 metaphases of both intact lymphocyte cultures and those with added peptide (10 cultures of each).
To estimate ribosomal genes activity in intact cultures and under the effect of the peptide there were used methods of Ag-banding and of the registration of nucleolar organizers regions (NOR) of acrocentric chromosomes. Changeability of the activity level was estimated comparing two binomial totals.
Polymorphism of structural C-heterochromatin of the 1, 9 and 16 chromosomes was estimated. For comparative analysis of C-stained chromosomes of intact cultures and those treated with the peptide there was used a standard system of classification, according to which the size of the 1, 9, 16 chromosomes C-segments were compared to the chromosome 16 short leg and the results were divided into 5 categories—a, b, c, d, e. The changeability of facultative heterochromatin was estimated according to the frequency of sister chromatid exchange (SCE) in intact and peptide-treated lymphocytes.

[3] = test system: white mongrel male mice; experiment: Acute toxicity, single intramuscular administration; format: in vivo; details: single i.m. 1-5 mg/kg, dose exceeding the therapeutic one by more than 5000 times
Description: Common toxicity of H-Glu-Asp-Pro-OH was studied according to the requirements stated in the “Manual for experimental (pre-clinical) study of new pharmacological substances” (2005): acute toxicity in case of single administration of the substance and sub-acute and chronic toxicity in case of long-term administration of the peptide.
The study of acute toxicity was performed on 60 white mongrel male mice with body weight of 18-21 g. The animals were randomly subdivided into 6 equal groups. The substance was administered to the animals once, intramuscularly, in the doses of 1 mg/kg, 2 mg/kg, 3 mg/kg, 4 mg/kg, 5 mg/kg in 0.25 ml of sterile 0.9% NaCl solution. The control animals received 0.9% NaCl solution in the same volume. The study of subacute toxicity was performed on 50 white mongrel male rats with body weight of 170-210 g. Experimental animals received the substance daily, intramuscularly for 90 days in the doses of 1 μg/kg, 0.1 mg/kg, 1 mg/kg in 0.5 ml of sterile 0.9% NaCl solution. […] Upon completion of the experiment biochemical and coagulologic indices of the blood were also evaluated. […] Traditional methods were used for the evaluation of the following indices of the animals' peripheric blood: the quantity of erythrocytes, hemoglobin, reticulocytes, thrombocytes, leukocytes, leukocyte formula, erythrocyte sedimentation rate (ESR), erythrocyte resistance. […]

[4] = patients 62-83 years, after treatment including the peptide, i.m. daily for 10 days

## N[C@@H](CCC(=O)O)C(=O)N[C@@H](CC(=O)O)C(=O)N1CCC[C@H]1C(=O)O [Peptide H-Glu-Asp-Pro-OH, glutamyl-aspartyl-proline] (H-Glu-Asp-Pro-OH)
[1]; composition in different doses with symptomatic means, 56% in the control group
  Patients in whom disordered immune system indices were normalized: 82%
[1]; elderly and old patients, composition in different doses
  Side effects in patients: does not exert any side effects, complications or drug addiction
[1]; elderly people in the three main groups
  General state and asthenic syndrome after the treatment course: significant improvement of the general state and reduction of the asthenic syndrome
[1]; [4]
  CD3+, %: 55.7 ± 2.6 %
  CD3+, ×10^9/l: 1.86 ± 0.05 ×10^9/l
  CD4+, %: 34.6 ± 2.0 %
  CD4+, ×10^9/l: 0.67 ± 0.09 ×10^9/l
  CD4+/CD8+: 1.4*#
  CD8+, %: 24.9 ± 1.8%
  CD8+, ×10^9/l: 0.46 ± 0.07 ×10^9/l
  CD20+, %: 12.0 ± 0.7%
  CD20+, ×10^9/l: 0.20 ± 0.01 ×10^9/l
  IgA: 2.1 ± 0.3 g/L
  IgG: 14.9 ± 1.7 g/L
  IgM: 1.64 ± 0.06 g/L
  LMIR (lymphocyte migration inhibition reaction with Con A): 70.4 ± 4.9 %
  Leukocytes: 5.6 ± 0.1 ×10^9/l
  Lymphocytes, %: 35.1 ± 2.1%
  Lymphocytes, ×10^9/l: 1.87 ± 0.05 ×10^9/l
[2]
  Associated acrocentric chromosomes (per cell): 2.32 ± 0.12 per cell
  Deheterochromatinization of optional heterochromatin - SCE (per cell): 8.4 ± 0.5 per cell
  Structural heterochromatin (C-blocks), chromosome 1: Deheterochro-
  Structural heterochromatin (C-blocks), chromosome 9: Deheterochro-
  Structural heterochromatin (C-blocks), chromosome 16: Stable
  Total heterochromatin: Deheterochro-
[3]
  Acute toxicity: toxic reactions: does not cause toxic reactions
